# From patent publication US20170260126A1, “SQUALENE COMPOUNDS AS MODULATORS OF LDL-RECEPTOR EXPRESSION” (OXFORD UNIVERSITY INNOVATION LIMITED, priority 2014, published 2017)
# pEC50: −log10 of the molar value.
# What was measured:
# Squalene Synthase = target: T1, Squalene Synthase (Homo sapiens, UniProt P37268); assay: Squalene Synthase activity assay in human liver microsomes with [1-3H]FPP; type: biochemical; details: FIG. 1b
# T1 construct: 12 μg human liver microsomes; from tissue; host or cells: human liver microsomes
# T1 sequence (P37268 1-417): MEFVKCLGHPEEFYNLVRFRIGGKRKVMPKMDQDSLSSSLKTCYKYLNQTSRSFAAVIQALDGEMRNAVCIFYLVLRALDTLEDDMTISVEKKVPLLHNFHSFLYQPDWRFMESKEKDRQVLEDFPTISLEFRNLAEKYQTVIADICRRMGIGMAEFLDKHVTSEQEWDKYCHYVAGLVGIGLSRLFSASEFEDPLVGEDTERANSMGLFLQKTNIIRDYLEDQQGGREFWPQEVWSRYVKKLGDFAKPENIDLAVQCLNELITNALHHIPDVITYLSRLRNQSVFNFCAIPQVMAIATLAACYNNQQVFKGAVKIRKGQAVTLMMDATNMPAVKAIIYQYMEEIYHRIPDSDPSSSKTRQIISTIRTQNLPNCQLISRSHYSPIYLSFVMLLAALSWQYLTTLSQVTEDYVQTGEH
# Procedure: Squalene Synthase activity assays were performed in 1 mL reactions containing 50 mM phosphate buffer (pH 7.4, 10 mM MgCl2), 12 μg human liver microsomes, [1-^3H]FPP (0.045 Ci/mmol) and 0.5 mM NADPH. Enzyme and inhibitors were incubated for 10 minutes at 37° C. Substrate was then added and reaction was incubated for 10 min at 37° C. Reaction was stopped by adding 1 mL of 15% KOH in ethanol and incubated at 65° C. for 30 minutes. 5 mL of petroleum ether was added and reaction was shaken for 10 minutes at room temperature. The lower aqueous phase was frozen and the upper organic phase transferred to fresh glass tubes containing 2 mL distilled water. 1.5 mL of the organic phase was transferred to a scintillation vial containing liquid scintillation fluid, and radioactivity was quantitated using a Beckman liquid scintillation counter. Data was analyzed using Prism Graphpad software.
# As a representative example, compound 40 (Example 15; JM-086) was tested for squalene synthase inhibitory properties alongside compound 15a (Example 1), and the known squalene synthase inhibitor, YM-53601, as a positive control.
# [1] = system: CHO pLDLR-Luciferase cells; assay: Luciferase assay (LDLR promoter-luciferase reporter in CHO cells); type: cell-based, Chinese Hamster; set-up: Emax: unit not given here; details: 48 hours after treatment; for pEC50: Cricetulus griseus
# Procedure: Chinese Hamster Ovary (CHO) cells cultivated in 2×75 […] conical flasks had their media removed and washed in 5 mL of PBS before 2 mL of Trypsin was added. The cells were swirled for a minute, before being placed in the 37° C. incubator for 5 min. The conical flasks were tapped to remove cells from the bottom, and aspirated out into 2×13 mL of Ham F-12 media containing 10% FBS and 1% L-Glutamine. The cells were then spun down at 1000 rpm for 5 min. The media was aspirated off, and the pellet from each of the two flasks was resuspended in 5 mL of media. The cells were counted, plated into a 24-well plate to give 1.5×10^5 cells/well in 500 μL of media, and placed in the 37° C. incubator. 2 mL of the remaining cells was added to 38 mL of media, plated 20 mL each into 2×75 cm^2 conical flasks, and placed in the 37° C. incubator.
# After 24 h, the media was aspirated out and replaced with 500 μL Lipoprotein Deficient Serum (LPDS) media. The plate was then returned to the incubator for a further 24 h.
# Following this incubation, the compound to be tested was dissolved in DMSO to give a concentration of 1 mg/mL. An appropriate amount of this solution was then added to FPS media to give 5 mL at a concentration of 10 μM. Serial dilution then gave the other required concentrations, to give testing concentrations of 0.1 nM, 1 nM, 10 nM, 30 nM, 100 nM, 1 μM and 10 μM. A 1 μM compound 49 positive control was also prepared from a stock solution in DMSO, and 0.1% DMSO control was also prepared as a negative control. Each well was then treated with 500 μL of each solution, according to the plate map shown below, and the plates were placed in the incubator.
# 48 hours after treatment, the cell media was aspirated and cells were washed with 500 μL of PBS. 100 μL of luciferase lysis buffer (12.5 mL 1M TrisPO4 pH 7.8, 5 mL 0.2M CDTA solution, 50 mL glycerol, 5 mL Triton-X 100, 427.5 mL H2O) was added to each sample; samples were shaken for 20 min at 4° C. before being pipetted up and down, then the plate was spun at 4500 rpm for 5 min. 75 μL of lysate was pippetted into a 96-well plate. The plate was then run on a Dynex Technologies MLX 96 Well Plate Luminometer using revalation software. 100 µL of luciferase assay buffer solution and 50 μL of Luciferin solution (200 μL Luciferin 10X, 1800 μL H2O) was dispensed each time. Response was recorded in Relative Light Units (RLUs), normalised to standards from a bicinchoninic acid (BCA) assay.
# Prepared using 3 mL luciferase assay buffer (7.5 mL 1M MgSO4, 7.5 mL 1M TrisPO4 pH 7.8 buffer, 20 mL 0.1M EGTA pH 7.8, 465 mL H2O), added to 60 μL of 100 mM ATP and 6 μL of 1 M DTT solution.
# [2] = system: CHO pLDLR-Luciferase cells; assay: Combination therapy experiments, luciferase compound screen with simvastatin; type: cell-based, Chinese Hamster; details: Cricetulus griseus; single agent, CHO-pLDLR-Luc, FIG. 3a/3b; read-out: EC50, increase in levels of luciferase
# Procedure: As described above, CHO WT cells transfected with pLDLR-Luc (CHO-pLDLR-Luc) were grown in HamsF-12(Sigma N4888) medium supplemented with 10% fetal bovine serum (FBS), 1% penicillin/streptomycin, 1% L-glutamine, in a 5% CO2 incubator at 37° C. CHO-pLDLR-Luc were seeded in 24-well plates at 1.5×10^5 per well. After 24h cells were changed to HamsF-12(Sigma N4888) supplemented with 10% lipoprotein deficient serum (LDPS), 1% penicillin/streptomycin, 1% L-glutamine. Compounds and simvastatin (Sigma S6196) dissolved in DMSO and Cholesterol(Sigma C8667) and 25-Hydroxycholesterol(Sigma H1015) dissolved in ethanol were added 24 h after serum starvation.
# Simvastatin and compound 40 (Example 15; JM-086) were added together. The compounds were added at the exact same time, with the EC50 of either compound 40 (JM-086) or Simvastatin added into the media containing increasing doses of either compound 40 (JM-086) or Simvastatin then being added to the CHO pLDLR-Luciferase cells.
SMILES,squalene synthase inhibition (Squalene Synthase),melting point,Emax [1],pEC50 [1],pEC50 [2]
"Oc1ccc(/C=C/c2ccccc2)cc1 [Compound 32, (E)-4-styrylphenol]",,,34,5.52,
"COc1ccc(/C=C/c2ccc(OCCCN(C)C)cc2)cc1 [Compound 44a, (E)-3-(4-(4-methoxystyryl)phenoxy)-N,N-dimethylpropan-1-amine]",,138 to 140 °C,30,6.59,
"COc1cccc(/C=C/c2ccc(OCCCN(C)C)cc2)c1 [Compound 44b, (E)-3-(4-(3-methoxystyryl)phenoxy)-N,N-dimethylpropan-1-amine]",,28 to 32 °C,9,5.60,
"CN(C)CCCOc1ccc(/C=C/c2ccc([N+](=O)[O-])cc2)cc1 [Compound 47a, (E)-N,N-dimethyl-3-(4-(4-nitrostyryl)phenoxy)propan-1-amine]",,85.2 to 85.9 °C,39,5.52,
"CN(C)CCCOc1ccc(/C=C/c2ccccc2)cc1F [Compound 62, (E)-3-(2-fluoro-4-styrylphenoxy)-N,N-dimethylpropan-1-amine]",,68.2 to 72.6 °C,15,5.52,
"COc1ccc(/C=C/c2ccccc2)cc1 [Compound 65, (E)-1-methoxy-4-styrylbenzene]",,,6,7.30,
"CCC(C)(C)C(=O)O[C@H]1C[C@@H](C)C=C2C=C[C@H](C)[C@H](CC[C@@H]3C[C@@H](O)CC(=O)O3)[C@H]21 [Simvastatin, reference compound]",,,,,6.89

# More lines, main results first:
squalene synthase inhibition (Squalene Synthase),melting point,SMILES,Emax [1],pEC50 [1],pEC50 [2]
dose-dependent activity,75 to 77 °C,"CN(C)CCCOc1ccc(/C=C/c2ccccc2)cc1 [Compound 15a, (E)-N,N-dimethyl-3-(4-styrylphenoxy)propan-1-amine]",5,7.41,
,97 to 98 °C,"CC(C)CCCOc1ccc(/C=C/c2ccccc2)cc1 [Compound 39, (E)-1-((4-methylpentyl)oxy)-4-styrylbenzene]",8,6.00,
dose-dependent activity,,"OCCCOc1ccc(/C=C/c2ccccc2)cc1 [Compound 40, (E)-3-(4-styrylphenoxy)propan-1-ol]",32,7.46,7.50
,77.8 to 81 °C,"COCCCOc1ccc(/C=C/c2ccccc2)cc1 [Compound 41, (E)-1-(3-methoxypropoxy)-4-styrylbenzene]",44,5.82,
,177.6 to 180.9 °C,"COc1ccccc1/C=C/c1ccc(OCCCN(C)C)cc1 [Compound 44c, (E)-3-(4-(2-methoxystyryl)phenoxy)-N,N-dimethylpropan-1-amine]",8,6.51,
,128.8 to 129.9 °C,"CN(C)CCCOc1ccc(/C=C/c2ccc(F)cc2)cc1 [Compound 46a, (E)-3-(4-(4-fluorostyryl)phenoxy)-N,N-dimethylpropan-1-amine]",24,5.70,
,56.2 to 58.6 °C,"CN(C)CCCOc1ccc(/C=C/c2cccc(F)c2)cc1 [Compound 46b, (E)-3-(4-(3-fluorostyryl)phenoxy)-N,N-dimethylpropan-1-amine]",9,5.82,
,51.9 to 57.1 °C,"CN(C)CCCOc1ccc(/C=C/c2ccccc2[N+](=O)[O-])cc1 [Compound 47c, (E)-N,N-dimethyl-3-(4-(2-nitrostyryl)phenoxy)propan-1-amine]",5,5.52,
,84.2 to 87.7 °C,"CNCCCOc1ccc(/C=C/c2ccccc2)cc1 [Compound 69, (E)-N-methyl-3-(4-styrylphenoxy)propan-1-amine]",8,6.49,
